Measured values taken from paper PMC4604124, “In Vitro Characterization of the Pharmacological Properties of the Anti-Cancer Chelator, Bp4eT, and Its Phase I Metabolites” (PLoS ONE, 2015).
“And” between values parts separate entries of the source, which are not always exact repeats. Equal values may be shown once.

Tests used:
[1] = test system: A549 human lung adenocarcinoma cells; experiment: MTT cytotoxicity assay, A549 cells; type: cell-based; conditions: for IC50: MTT
Procedure, shortened: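 72 h/37°C exposure, 0.1% DMSO. Plating: MCF-7 5,000; HCT116, A549 2,000; H9c2 10,000 cells/well, H9c2 switched to serum/pyruvate-free DMEM 24 h. MTT OD 570 nm, 690 nm background subtracted. Viability as % untreated control; IC50 derived.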

[2] = Ascorbate oxidation assay (redox activity of iron complexes); type: biochemical;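 on %Fe 30min (ascorbate oxidation, Fe = 100%), průměr (mean): IBE 1 means iron-binding equivalents giving fully coordinated iron-chelator complexes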;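 on %Fe 30min (ascorbate oxidation, Fe = 100%), single replicates: IBE 1 means iron-binding equivalents giving fully coordinated iron-chelator complexes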;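 on %Fe 30min: ascorbate oxidation as % of the Fe control (Fe 100%): IBE 0.1 means iron-binding equivalents with iron in excess over chelator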;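 on raw reading at čas 20 (time 20), průměr (mean): IBE 1 means fully coordinated iron chelator complexes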
[3] = sheet IBE 1, time 10, replicates

## CCNC(=O)NN=C(c1ccccc1)c1ccccn1 [Z-Bp4eS, 2-benzoylpyridine 4-ethylsemicarbazone]
[1]; 3T3/A549
  Therapeutic index, IC50 non-cancerous cells / IC50 neoplastic cells: >1.9
[1]; A549, 72 h/37°C, mean ± SD, n ≥ 4
  IC50: 536 ± 147 µM
[1]; A549, 2 000 b/j, 1 μM, průměr (mean), sheet Z-Bp4eS
  MTT, relative to control (0 = 100): 94.73
[1]; A549, 2 000 b/j, 1 μM, single experiment (date), sheet Z-Bp4eS
  MTT, relative to control (0 = 100): 96.1035 and 96.1124 and 90.1392 and 98.3089 and 94.9198 and 92.7894
[1]; A549, 2 000 b/j, 3 μM, průměr (mean), sheet Z-Bp4eS
  MTT, relative to control (0 = 100): 94.38
[1]; A549, 2 000 b/j, 3 μM, single experiment (date), sheet Z-Bp4eS
  MTT, relative to control (0 = 100): 93.9771 and 96.8848 and 87.0494 and 97.8403 and 95.4397 and 95.0776
[1]; A549, 2 000 b/j, 10 μM, průměr (mean), sheet Z-Bp4eS
  MTT, relative to control (0 = 100): 94.55
[1]; A549, 2 000 b/j, 10 μM, single experiment (date), sheet Z-Bp4eS
  MTT, relative to control (0 = 100): 94.0202 and 95.9602 and 87.4767 and 100.017 and 95.1483 and 94.6861
[1]; A549, 2 000 b/j, 30 μM, průměr (mean), sheet Z-Bp4eS
  MTT, relative to control (0 = 100): 91.68
[1]; A549, 2 000 b/j, 30 μM, single experiment (date), sheet Z-Bp4eS
  MTT, relative to control (0 = 100): 90.8876 and 93.251 and 83.1786 and 91.8017 and 95.6624 and 95.2834
[1]; A549, 2 000 b/j, 100 μM, průměr (mean), sheet Z-Bp4eS
  MTT, relative to control (0 = 100): 84.34
[1]; A549, 2 000 b/j, 100 μM, single experiment (date), sheet Z-Bp4eS
  MTT, relative to control (0 = 100): 76.9185 and 86.3352 and 79.6865 and 86.589 and 88.5447 and 87.9645
[1]; A549, 2 000 b/j, 300 μM, průměr (mean), sheet Z-Bp4eS
  MTT, relative to control (0 = 100): 74.88
[1]; A549, 2 000 b/j, 300 μM, single experiment (date), sheet Z-Bp4eS
  MTT, relative to control (0 = 100): 67.4475 and 78.3776 and 76.2041 and 77.4903
[1]; A549, 2 000 b/j, 1000 μM, průměr (mean), sheet Z-Bp4eS
  MTT, relative to control (0 = 100): 26.69
[1]; A549, 2 000 b/j, 1000 μM, single experiment (date), sheet Z-Bp4eS
  MTT, relative to control (0 = 100): 18.2318 and 35.0023 and 34.1521 and 19.3887
[1]; A549, 2 000 b/j, single experiment (date), sheet Z-Bp4eS
  IC50: 676 µM and 639 µM and 464 µM
[1]; H9c2/A549
  Therapeutic index, IC50 non-cancerous cells / IC50 neoplastic cells: 0.6
[1]; Homo sapiens, A549, A549, 2 000 b/j, průměr (mean), sheet Z-Bp4eS
  IC50: 536 µM
[1]; Homo sapiens, A549, A549, 2 000 b/j, single experiment (date), sheet Z-Bp4eS
  IC50: 364 µM
[2]; IBE 0.1, 30 min, mean (průměr)
  %Fe 30min: ascorbate oxidation as % of the Fe control (Fe 100%): 99.02%
[2]; IBE 0.1, time 10, mean (průměr)
  Change of absorbance after subtraction of time 0 (odečet 0): -0.03387
[2]; IBE 0.1, time 20, mean (průměr)
  Change of absorbance after subtraction of time 0 (odečet 0): -0.06534
[2]; IBE 0.1, time 30, mean (průměr)
  Change of absorbance after subtraction of time 0 (odečet 0): -0.09415
[2]; IBE 0.1, čas 0 (time 0), mean (průměr)
  Absorbance (ascorbate, λ = 265 nm): 0.7817
[2]; IBE 0.1, čas 10 (time 10), mean (průměr)
  Absorbance (ascorbate, λ = 265 nm): 0.7478
[2]; IBE 0.1, čas 20 (time 20), mean (průměr)
  Absorbance (ascorbate, λ = 265 nm): 0.7164
[2]; IBE 0.1, čas 30 (time 30), mean (průměr)
  Absorbance (ascorbate, λ = 265 nm): 0.6875
[2]; sheet IBE 1, 30min, Fe 100%, mean
  %Fe 30min (ascorbate oxidation, Fe = 100%), průměr (mean): 102.1%
[2]; sheet IBE 1, 30min, Fe 100%, replicates
  %Fe 30min (ascorbate oxidation, Fe = 100%), single replicates: 100.6% and 105.4% and 99.81% and 137.6% and 115.7% and 98.81% and 93.49% and 86.5% and 81.2%
[2]; sheet IBE 1, time 0, mean of 9 readings
  raw reading at čas 0 (time 0), průměr (mean): 0.8114
[2]; sheet IBE 1, time 0, replicates of 2014-03-24 (two runs) and 2014-03-25
  raw reading at čas 0 (time 0), single replicates: 0.8361 and 0.825 and 0.7812 and 0.7956 and 0.8012 and 0.8226 and 0.8158 and 0.7997 and 0.8255
[2]; sheet IBE 1, time 10, mean
  odečet 0 (reading minus time 0 reading) at čas 10, průměr (mean): -0.03354
[2]; sheet IBE 1, time 10, mean of 9 readings
  raw reading at čas 10 (time 10), průměr (mean): 0.7779
[2]; [3]
  odečet 0 (reading minus time 0 reading) at čas 10, single replicates: -0.0282 and -0.0302 and -0.027 and -0.05761 and -0.03481 and -0.02931 and -0.03593 and -0.03173 and -0.02703
  raw reading at čas 10 (time 10), single replicates: 0.753 and 0.7654 and 0.7742 and 0.765 and 0.781 and 0.7704 and 0.7896 and 0.8044 and 0.798
[2]; sheet IBE 1, time 20, mean
  odečet 0 (reading minus time 0 reading) at čas 20, průměr (mean): -0.06288
[2]; sheet IBE 1, time 20, mean of 9 readings
  raw reading at čas 20 (time 20), průměr (mean): 0.7486
